# Measured values from US20130136778A1, “PTEROSTILBENE (PTER) FOR USE IN THE PREVENTION AND/OR TREATMENT OF SKIN DISEASES, DAMAGES OR INJURIES” (GREEN MOLECULAR, S.L., priority 2009, published 2013).
# Tests used:
# SKH-1 mice [1] = assay: Thickness of the epidermis after acute UV-B exposure of 360 mJ/cm2; type: in vivo
# Method: UVB Acute exposure protocols were used: Mice underwent a single exposure of 360 mJ/cm2. The study was conducted at 24 hours after exposure. This protocol was used to evaluate the photoprotective effect of the compounds studied. With the same acute-phase protocol mice from all groups were irradiated. Subsequently mice remained in the animal storage area for a week to see the evolution of the inflammatory response and edema. • 1. Edema formation: skinfold thickness was determined with a caliper 24 hours after the first exposure. • 2. Study of the thickness of the epidermis after exposure to acute irradiation (360 mj/cm^2 24 h hours and 7 days after irradiation). • 3. Histological studies: measuring, in the pictures obtained from histological sections, the thickness of the epidermis. For studies of acute exposure skin samples were taken from the back of the mouse. These samples were fixed with 4% paraformaldehyde (24 hours) and embedded in paraffin. Following cutting the samples were stained with hematoxylin and eosin. The two protocols of UV-B exposure used were: • Intense exposure after a single exposure of 360 mJ/cm^2. The study was carried out 24 hours after the exposure. This protocol was used to assess the photoprotective effects of the compounds studied. • Intense exposure after a single exposure of 360 mJ/cm^2. The study was carried out 1 week after the exposure. The mice were kept in the shed for a week to observe the evolution of the inflammatory and edematous response. At 24 hours or 1 week after the administration of the different treatments the mice were sacrificed and their skin fixed with 4% PFA. To measure the thickness of the epidermis to evaluate possible hyperplasia, a computer program was used, Image J, calibrated with the assistance of a Neubauer camera which allowed the measuring of the epidermis. Results obtained were statistically analyzed by ANOVA and contrasted by the Tukey test and grouped according to the significant differences. […] Therefore PTER alone could be used efficiently in the prevention of skin diseases, injuries or damages induced by ultraviolet B radiation. The evaluation of skin thickness was carried out by using computer software (IMAGE J). Results obtained by ANOVA were contrasted by the Tukey test and grouped according to the significant differences. […] Therefore PTER separately could be used efficiently in the prevention of skin diseases, damages or injuries induced by ultraviolet B radiation.
# SKH-1 mice [2] = assay: Photocarcinogenesis: chronic exposure to UV-B, precancerous lesions/tumors per mouse; type: in vivo; details: after 30 weeks of chronic exposure to UV-B
# Description: The role of UV-B radiation in tumor formation is well known. The continuous exposure to UV-B promotes the formation of oxidative/nitrosative stress, along with alterations in DNA, proteins, etc. that activates various transcription factors (among them NF-κB and AP-1), increase in the telomerase activity, stress, etc. which in turn induces carcinogenesis.
# The mice chosen for this study were SKH-1.
# The protocol used was the standardized protocol, whereby several mice were irradiated three times per week with a dose of 180 mJ/cm^2 with exposures for 24 weeks; however, […], in order to obtain more evidence of the photoprotector effect on the different treatments used.
# The dose of exposure was 180 mJ/cm2, since it had been determined in previous trials that this was the minimal erythemic dose (MED) for this type of rodent.
# A range of different commercial photoprotectors were included in this study: • Vichy: Capital Soleil SPF-50+(Vichy Laboratoires). • Isdin: Photoprotector Isdin Extrem (SPF-40 (Isdin SA) • Heliocare: Heliocare gel Protection Ultra 90 (Difa Cooper S.P.A.)
# Both the reference compounds and the ones subject of this study were applied to the back of the mice for 20 minutes prior to their exposure to UV-B. […]
# During the photocarcinogenesis process, the presence of different tumors was followed and quantified throughout the process. […]
compound,measurement,setting,value
"COc1cc(/C=C/c2ccc(O)cc2)cc(OC)c1 [PTER, 3,5-dimethoxy-4′-hydroxy-trans-resveratrol]","thickness of the epidermis 24 hours after irradiation, applied after UVB",SKH-1 mice [1]; FIG. 2,"more efficient in the treatment of skin diseases, injuries or damages caused by radiation, when applied after the exposure to UVB, than the commercial creams (Vichy, Heliocare and Isdin)"
same,"thickness of the epidermis 24 hours after irradiation, applied before UVB",SKH-1 mice [1]; FIG. 2,"more efficient as photoprotector, when applied before the exposure to UVB, than the commercial creams (Vichy, Heliocare and Isdin)"
same,thickness of the epidermis 24 hours after irradiation (before or after application),"SKH-1 mice [1]; FIG. 2, versus group treated only with UV-B",produced better results than even commercial photoprotectors and Resveratrol
same,"thickness of the epidermis 1 week after irradiation, applied after UVB",SKH-1 mice [1]; FIG. 3,"more efficient in the treatment of skin diseases, injuries or damages caused by radiation, when applied after the exposure to UVB, than the commercial creams (Vichy, Heliocare and Isdin)"
same,"thickness of the epidermis 1 week after irradiation, applied before UVB",SKH-1 mice [1]; FIG. 3,"more efficient as photoprotector, when applied before the exposure to UVB, than the commercial creams (Vichy, Heliocare and Isdin)"
same,mice presenting lesions,SKH-1 mice [2],10%
